Patent publication US11345711B2, “8,9-dihydroimidazo[1,2-a]pyrimido[5,4-e]pyrimidin-5(6H)-ones” (IMPACT THERAPEUTICS (SHANGHAI), INC, priority 2016, dated 2022)
Where two headings read alike, the source gives them in different places.

Legend:
[1] = target: Wee1 (h) (Homo sapiens, UniProt P30291); test: Wee1 kinase (h) detection method, [γ-33P]-ATP filter assay; assay type: biochemical
[2] = tested on: NCI-H1299 cells; test: MTT based cell viability assay on NCI-H1299 cells; details: Homo sapiens, read-out: IC50, growth inhibition of NCI-H1299 cells
Summary of the method: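 NCI-H1299 cells (1000/well, settled overnight) were exposed for 3 d at 37 °C, 5% CO2, to an eight-point series of 10 μM to 0.01 μM plus DMSO blank, as prepared in DMSO (final DMSO 1‰). MTT (0.5 mg/mL, 4 h) was read at 552/630/690 nm. IC50 came from sigmoidal dose-response fits of survival.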

[3] = tested on: LoVo cells; test: MTT based cell viability assay on LoVo cells; details: Homo sapiens, LoVo, 72 h, 3 d, read-out: IC50, growth inhibition of LoVo cells
Summary of the method: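 Inhibition of LoVo proliferation was derived as IC50 from a sigmoidal dose-response fit of cell survival. Readout was MTT (0.5 mg/mL, 4 h) with absorbance at 552/630/690 nm, after 3-day treatment at 37 °C. Eight-point series from 10 μM to 0.01 μM, DMSO control, 1% DMSO final.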

Sequence of Wee1 (h) (P30291 whole entry): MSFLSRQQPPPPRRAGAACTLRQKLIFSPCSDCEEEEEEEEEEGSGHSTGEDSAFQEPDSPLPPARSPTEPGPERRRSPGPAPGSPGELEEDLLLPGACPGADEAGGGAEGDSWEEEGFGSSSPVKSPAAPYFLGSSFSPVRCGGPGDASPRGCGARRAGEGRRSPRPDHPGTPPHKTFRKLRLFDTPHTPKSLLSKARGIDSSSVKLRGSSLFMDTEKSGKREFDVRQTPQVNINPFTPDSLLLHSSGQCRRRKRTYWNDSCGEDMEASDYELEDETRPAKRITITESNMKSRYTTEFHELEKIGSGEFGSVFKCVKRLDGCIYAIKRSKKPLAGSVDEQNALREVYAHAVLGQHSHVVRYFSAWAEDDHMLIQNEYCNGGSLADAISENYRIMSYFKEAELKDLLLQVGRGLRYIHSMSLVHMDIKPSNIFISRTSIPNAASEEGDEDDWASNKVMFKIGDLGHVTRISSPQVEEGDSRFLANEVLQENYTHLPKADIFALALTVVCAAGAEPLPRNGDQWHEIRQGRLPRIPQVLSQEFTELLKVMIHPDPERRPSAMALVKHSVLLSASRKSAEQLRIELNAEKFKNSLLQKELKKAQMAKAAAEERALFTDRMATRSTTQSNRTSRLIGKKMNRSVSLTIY

| Inh. (%) of Wee1 kinase enzyme activity ([1]; C 10 μm compound) | IC50 ([2]; NCI-H1299 cells) | IC50 [3] | Inh. (%) of Wee1 kinase enzyme activity ([1]; C 0.01 μm compound) | Inh. (%) of Wee1 kinase enzyme activity ([1]; C 0.1 μm compound) | Inh. (%) of Wee1 kinase enzyme activity ([1]; C 1 μm compound) | IC50 ([2]; NCI-H1299, NCI-H1299 cells) | Structure (SMILES) |
| --- | --- | --- | --- | --- | --- | --- | --- |
| 56% | > 10 µM | > 100 µM |  |  |  |  | CN1CCN(c2ccc(Nc3cc4c(cn3)C(=O)N(c3ccccc3Cl)C3=NCCN34)cc2)CC1 [Example 3, 4-(2-Chlorophenyl)-8-((4-(4-methylpiperazin-1-yl)phenyl)amino)-2,4-dihydroimidazo[1,2-a]pyrido[3,4-e]pyrimidin-5(1H)-one] |
|  | 1.05 µM | 0.678 µM | 30% | 70% | 92% |  | CN1CCCN(c2ccc(Nc3ncc4c(n3)N3CCN=C3N(c3c(F)cccc3Cl)C4=O)cc2)CC1 [Example 103, 6-(2-Chloro-6-fluorophenyl)-2-((4-(4-methyl-1,4-diazepan-1-yl)phenyl)amino)-8,9-dihydroimidazo[1,2-a]pyrimido[5,4-e]pyrimidin-5(6H)-one] |
|  |  | 0.0359 µM | 16% | 80% | 98% | 0.0593 µM | Cc1cc(Nc2ncc3c(n2)N2CCN=C2N(c2c(F)cccc2Cl)C3=O)cc(F)c1N1CCC(N(C)C)CC1 [Example 120, 6-(2-Chloro-6-fluorophenyl)-2-((3-fluoro-5-methyl-4-(4-(dimethylamino)piperidin-1-yl)phenyl)amino)-8,9-dihydroimidazo[1,2-a]pyrimido[5,4-e]pyrimidin-5(6H)-one] |
|  | 0.957 µM | 0.22 µM |  |  | 89% |  | CN1CCN(c2ccc(Nc3ncc4c(n3)N3CCN=C3N(c3cccc(F)c3Cl)C4=O)cc2)CC1 [Example 89, 6-(2-Chloro-3-fluorophenyl)-2-((4-(4-methylpiperazin-1-yl)phenyl)amino)-8,9-dihydroimidazo[1,2-a]pyrimido[5,4-e]pyrimidin-5(6H)-one] |
|  |  | 0.0855 µM | 13% | 82% | 91% | 0.145 µM | Cc1cc(Nc2ncc3c(n2)N2CCN=C2N(c2c(F)cccc2Cl)C3=O)ccc1N1C[C@@H](C)N(C(C)C)[C@@H](C)C1 [Example 53, 6-(2-Chloro-6-fluorophenyl)-2-((4-((3S,5R)-4-isopropyl-3,5-dimethylpiperazin-1-yl)-3-methylphenyl)amino)-8,9-dihydroimidazo[1,2-a]pyrimido[5,4-e]pyrimidin-5(6H)-one] |
|  |  | 0.105 µM |  |  | 98% | 0.233 µM | CN1CCC(c2ccc(Nc3ncc4c(n3)N3CCN=C3N(c3c(F)cccc3Cl)C4=O)cc2)CC1 [Example 114, 6-(2-Chloro-6-fluorophenyl)-2-((4-(1-methylpiperidin-4-yl)phenyl)amino)-8,9-dihydroimidazo[1,2-a]pyrimido[5,4-e]pyrimidin-5(6H)-one] |
|  |  | 0.0264 µM | 18% | 74% | 95% | 0.0929 µM | Cc1cc(Nc2ncc3c(n2)N2CCN=C2N(c2c(F)cccc2Cl)C3=O)cc(Cl)c1N1CCN(C)CC1 [Example 125, 6-(2-Chloro-6-fluorophenyl)-2-((3-chloro-5-methyl-4-(4-methylpiperazin-1-yl)phenyl)amino)-8,9-dihydroimidazo[1,2-a]pyrimido[5,4-e]pyrimidin-5(6H)-one] |
|  | 0.794 µM | 0.36 µM |  |  | 95% |  | CN1CCC(Oc2ccc(Nc3ncc4c(n3)N3CCN=C3N(c3c(F)cccc3Cl)C4=O)cc2)CC1 [Example 107, 6-(2-Chloro-6-fluorophenyl)-2-((4-((1-methylpiperidin-4-yl)oxy)phenyl)amino)-8,9-dihydroimidazo[1,2-a]pyrimido[5,4-e]pyrimidin-5(6H)-one] |
|  |  | 0.165 µM | 16% | 73% | 93% | 0.274 µM | Cc1cc(Nc2ncc3c(n2)N2CCN=C2N(c2c(C)cccc2F)C3=O)cc(C)c1N1CCN(C)CC1 [Example 169, 6-(2-Fluoro-6-methylphenyl)-2-((3,5-dimethyl-4-(4-methylpiperazin-1-yl)phenyl)amino)-8,9-dihydroimidazo[1,2-a]pyrimido[5,4-e]pyrimidin-5(6H)-one] |
|  |  | 0.165 µM |  |  | 95% | 0.046 µM | Cc1cc(Nc2ncc3c(n2)N2CCN=C2N(c2c(Cl)cccc2Cl)C3=O)cc2c1C(C)(C)CN(C)C2 [Example 133, 6-(2,6-Dichlorophenyl)-2-((2,4,4,5-tetramethyl-1,2,3,4-tetrahydroisoquinolin-7-yl)amino)-8,9-dihydroimidazo[1,2-a]pyrimido[5,4-e]pyrimidin-5(6H)-one] |
|  | > 10 µM | > 100 µM |  |  | 27% |  | Cc1cc(N2C[C@@H](C)N(C)[C@@H](C)C2)ccc1Nc1ncc2c(n1)N1CCN=C1N(c1c(F)cccc1Cl)C2=O [Example 43, 6-(2-Chloro-6-fluorophenyl)-2-((2-methyl-4-((3S,5R)-3,4,5-trimethylpiperazin-1-yl)phenyl)amino)-8,9-dihydroimidazo[1,2-a]pyrimido[5,4-e]pyrimidin-5(6H)-one] |
|  | 2.36 µM | 0.185 µM |  |  | 75% |  | CN1CCN(c2ccc(Nc3ncc4c(n3)N3CCN=C3N(c3cccc(Cl)c3Cl)C4=O)cc2)CC1 [Example 91, 6-(2,3-Dichlorophenyl)-2-((4-(4-methylpiperazin-1-yl)phenyl)amino)-8,9-dihydroimidazo[1,2-a]pyrimido[5,4-e]pyrimidin-5(6H)-one] |
|  | 1.53 µM | 0.155 µM |  |  | 81% |  | COc1cc(Nc2ncc3c(n2)N2CCN=C2N(c2c(F)cccc2Cl)C3=O)ccc1N1CCN(C)CC1 [Example 54, 6-(2-Chloro-6-fluorophenyl)-2-((3-methoxy-4-(4-methylpiperazin-1-yl)phenyl)amino)-8,9-dihydroimidazo[1,2-a]pyrimido[5,4-e]pyrimidin-5(6H)-one] |
|  |  | 0.194 µM |  |  | 83% | 1.43 µM | CN1CCN(c2ccc(Nc3ncc4c(n3)N3CCN=C3N(c3c(Cl)cccc3Cl)C4=O)cc2C(F)(F)F)CC1 [Example 73, 6-(2,6-Dichlorophenyl)-2-((4-(4-methylpiperazin-1-yl)-3-(trifluoromethyl)phenyl)amino)-8,9-dihydroimidazo[1,2-a]pyrimido[5,4-e]pyrimidin-5(6H)-one] |
|  | 2.39 µM | 1.91 µM |  |  | 19% |  | CN1CCN(c2ccc(Nc3ncc4c(n3)N3CCN=C3N(C3CCC3)C4=O)cc2)CC1 [Example 94, 6-Cyclobutyl-2-((4-(4-methylpiperazin-1-yl)phenyl)amino)-8,9-dihydroimidazo[1,2-a]pyrimido[5,4-e]pyrimidin-5(6H)-one] |
|  | 1.23 µM | 0.757 µM |  |  | 82% |  | Cc1cc(Nc2ncc3c(n2)N2CCN=C2N(c2c(F)cccc2C(F)(F)F)C3=O)ccc1N1CCN(C)CC1 [Example 61, 6-(2-Fluoro-6-(trifluoromethyl)phenyl)-2-((3-methyl-4-(4-methylpiperazin-1-yl)phenyl)amino)-8,9-dihydroimidazo[1,2-a]pyrimido[5,4-e]pyrimidin-5(6H)-one] |
